Literature values in patent publication US4041155A, “Long acting somatostatin composition” (American Home Products Corporation, priority 1974, dated 1977).

Columns and labels:
[1] = test system: release of glucagon, insulin, and GH; conditions: oral glucose tolerance and intravenous arginine tests; cited from earlier work
[2] = test system: GH secretion; conditions: patients with acromegaly; cited from earlier work
[3] = test system: circulating levels of GH; conditions: subcutaneous route, cited from earlier work

Substance | release of GH [1] | release of glucagon [1] | release of insulin [1] | circulating levels of glucose [2] | circulating levels of insulin [2] | circulating levels of prolactin [2] | duration of biologic action [2] | free fatty acids [2] | inhibitory action on GH secretion [2] | levels of follicle-stimulating hormone [2] | levels of luteinizing hormone [2] | levels of thyrotropin [2] | circulating levels of GH ([3]; "gentled" rats) | elevation of plasma GH concentration induced by sodium pentobarbital ([3]; rats) | duration of activity, half-life ([3]; rats, estimated)
Somatostatin: cyclic disulfide tetradecapeptide; Somatotropin-release inhibiting factor secreted by the hypothalamus | impairs the release | impairs the release | impairs the release | fall | fall | fall | brief | increase | nearly complete | No effects | No effects | No effects | – | – | –
linear somatostatin: reduced tetradecapeptide; differs from cyclic form by lacking the bridging bond between the two cysteinyl sulfhydryls | – | – | – | – | – | – | – | – | – | – | – | – | lowers the circulating levels of GH | prevents the elevation of plasma GH concentration | less than ten minutes
